According to patent US20060217394A1, “Treatment of anhedonia” (priority 2005, published 2006):

Assays:
[1] = tested on: patients receiving SSRI or SNRI treatment for major depressive disorder; assay: Retrospective review of patients receiving SSRI or SNRI treatment for major depressive disorder: late-appearing anhedonic symptoms; format: in vivo; conditions: individual patient
Description: Although in the majority of so afflicted patients the diagnosis will be apparent during this interval, it should be understood that iatrogenic anhedonia may appear earlier or later during any course of treatment with medications that increase serotonin transmission efficiency with or without similar increases in the efficiency and availability of norepinephrine. The rather substantial number of patients suffering from the condition over diverse population samples may be postulated to be due to a genetic predisposition for the condition.
Patients in whom SSRIs produced excellent remission of major depressive disorder for the period shown in the 5th column
The result of decreased dopaminergic efficiency and/or availability may be dysphoric interference with the ability to experience the normal range of positive affect over the range from mild interest to pleasant excitement, and from ordinary contentment to great joy. Such decreased dopaminergic transmission efficiency may be caused by agents that block the serotonin transporter alone, and/or those that block both the serotonin transporter and the norepinephrine transporter, and/or those that increase the synthesis and release of both norepinephrine and serotonin and any mechanism whereby the efficiency of serotonergic transmission is enhanced.

[2] = tested on: patients afflicted with anhedonia; assay: Treatment of iatrogenic anhedonia in patients with agents enhancing dopaminergic availability and/or efficiency; format: in vivo; conditions: about 2.5 mg prn, no more than once daily, on as few as two to five days per week
[3] = period for which the SSRI produced excellent remission of major depressive disorder

| SMILES | SSRI duration before new symptoms [1, 3] | improvement of anhedonia [2] | SSRI duration before new symptoms ([1]; period of excellent remission, some patients 10 years intermittent (stopped Rx each time anomie experienced)) [year] |
| --- | --- | --- | --- |
| CN(C)CCCC1(c2ccc(F)cc2)OCc2cc(C#N)ccc21 (stereo not drawn) [citalopram] | 6 months |  |  |
| COC(=O)[C@H](c1ccccc1)[C@H]1CCCCN1 [dexmethylphenidate] |  | Satisfactory and ongoing improvement |  |
| CNCCC(Oc1ccc(C(F)(F)F)cc1)c1ccccc1 (stereo not drawn) [fluoxetine] | 2 years |  | 1 |
| Fc1ccc([C@@H]2CCNC[C@H]2COc2ccc3c(c2)OCO3)cc1 [paroxetine] | 10 years |  |  |
| CN[C@H]1CC[C@@H](c2ccc(Cl)c(Cl)c2)c2ccccc21 [sertraline] | 2 years |  |  |
